Consider three compounds from patent US20140088192A1, “SUBCUTANEOUSLY INFUSIBLE LEVODOPA PRODRUG COMPOSITIONS AND METHODS OF INFUSION” (SynAgile Corporation, priority 2010, published 2014).

One may read the solubility as how much of the substance goes into solution per volume. A higher solubility goes with a readily soluble substance.

The nature of data set [1]: Hydrolysis of LDEE salts to LD in aqueous solution, monitored by HPLC. Format: physicochemical.
Data set [2] in a line: Pharmacokinetic study of infusion of LDEE.HCl formulation in minipigs. Format: in vivo. Particulars: for concentration at 1 h: 1 hour after start of 16 h s.c. infusion of 1,142 mg LDEE; for concentration at 2 h: 2 hour after start of 16 h s.c. infusion of 1,142 mg LDEE; for concentration at 4 h: 4 hour after start of 16 h s.c. infusion of 1,142 mg LDEE; for concentration at 8 h: 8 hour after start of 16 h s.c. infusion of 1,142 mg LDEE; for concentration at 16 h: 16 hour after start of 16 h s.c. infusion of 1,142 mg LDEE. The protocol:
Citrate buffered LDEE.HCl solutions having a pH of 4.5-5.0 were infused into the neck/shoulder regions of juvenile minipigs weighing about 10 kgs. Two minipigs were treated. On each minipig, the solutions were simultaneously infused at two infusion sites, one on the left neck/shoulder and one on the right neck/shoulder. A total of 5.24 mL of solution containing 218 mg/mL LDEE was infused into each minipig over a period of 16 hours, delivering a total dose of 1,142 mg LDEE to each minipig. The dose was split equally between the two infusion sites, with each infusion site receiving 571 mg LDEE in 2.62 mL over 16 hours.
Blood samples were collected at times 0 (pre-dose), 30 minutes, and 1, 2, 4, 8 and 16 hours after the start of the infusion. Approximately 3 mL whole blood was collected from the jugular vein. The whole blood was collected into tubes containing K2 EDTA as the anticoagulant. Immediately after collection the samples were centrifuged for ˜15 minutes at ˜3000 RPM, at ˜4° C. Each plasma sample was then transferred to a plastic cryovial containing sodium metabisulfite and sodium fluoride as preservatives. After the samples were processed they were placed on dry ice until movement to storage at ˜−70 degrees Celsius. The samples were analyzed for LDEE using LC-MS.

For data set [3] the following is noted: 25° C., cited from earlier work.
A short description of the next data set: physchem. As to conditions: 25 °C, pH 4.5, aqueous buffer, thermodynamic from solid, solubility of LD.
The nature of data set [4]: Solubility of LD in citrate buffered LDEE.HCl solutions near pH 4.5. As to conditions: for solubility: citrate buffered aqueous solution, 25 °C, thermodynamic from solid, solubility of LD, citrate buffered.
Data set [5] in a line: Precipitation of LD from / clarity of LDEE solutions on holding.
The nature of data set [6]: Achievable concentration and density of concentrated LDEE salt solutions. As to conditions: LDEE acetate in water/acetic acid, pH 4.7.
The subject of the next data set is juvenile minipigs. The data set can be described thus: Subcutaneous infusion in minipigs, symptoms at infusion site. Format: in vivo, minipig. Particulars: s.c. two sites, 218 mg/mL, 1,142 mg LDEE over 16 hours. As for the experimental part: Citrate buffered LDEE.HCl solutions having a pH of 4.5-5.0 were infused into the shoulders of juvenile minipigs weighing about 10 kgs.
Citrate buffered LDEE.HCl solutions having a pH of 4.5-5.0 were infused into the neck/shoulder regions of juvenile minipigs weighing about 10 kgs. Two minipigs were treated. On each minipig, the solutions were simultaneously infused at two infusion sites, one on the left neck/shoulder and one on the right neck/shoulder. […] The dose was split equally between the two infusion sites, with each infusion site receiving 571 mg LDEE in 2.62 mL over 16 hours.

Data set [7] in a line: Estimated / projected shelf life and operational life (time to LD saturation). Particulars: about 2.65 M LDEE.HCl, constant pH 5.1, 23±2° C.
The mark [8] stands for this setting: minipig, in vivo, sc, 1142 mg, plasma, read-out: LD Concentration, Minipig #1.
The mark [9] stands for this setting: minipig, in vivo, sc, 1142 mg, plasma, read-out: LD Concentration, Minipig #2.
Where [10] appears, read: plasma, Pre-dose, 16 h s.c. infusion of 1,142 mg LDEE.
Where [11] appears, read: minipig, plasma, sc, 1142 mg, plasma, read-out: LDEE Concentration, Minipig #1.
[12] abbreviates: minipig, plasma, sc, 1142 mg, plasma, read-out: LDEE Concentration, Minipig #2.

≈ marks a conversion by molar mass, not a printed value. Read-outs that look alike come from different tables or passages of the source.

In the case of `N[C@@H](Cc1ccc(O)c(O)c1)C(=O)O` [LD, levodopa], in [1] (about 2.65 M LDEE.HCl, pH 5.1, after 7 days at 23±2° C.), the “LD concentration in solution (supersaturated, no precipitation until seeded)” value is “about 35 g per liter”. For the same compound, the concentration at 30 min in [2] (minipig, in vivo, sc, 1142 mg, plasma, 30 minutes after start of 16 h s.c. infusion of 1,142 mg LDEE, read-out: LD Concentration, Minipig #1) was 716 ng/mL; in data set [2] (minipig, in vivo, sc, 1142 mg, plasma, 30 minutes after start of 16 h s.c. infusion of 1,142 mg LDEE, read-out: LD Concentration, Minipig #2), 1180 ng/mL; in data set [2] (minipig, plasma, subcutaneous, 114.2 mg/kg, minipigs, LDEE 114.2 mg/kg s.c. over 16 hours, read-out: circulating plasma LD concentration achieved within 30 minutes of initiation of infusion) it was over 700 ng/mL. The concentration at 1 h in [2] (setting [8]) was 694 ng/mL; in [2] (setting [9]) it was 1050 ng/mL. The values for the concentration at 2 h in data set [2] (setting [8]) and in [2] (setting [9]) were 1540 ng/mL and 1370 ng/mL, respectively. The concentration at 4 h in data set [2] (setting [8]) turned out to be 1590 ng/mL; in data set [2] (setting [9]), 2490 ng/mL. Further, the concentration at 8 h came out at 3180 ng/mL in data set [2] (setting [8]) and 2370 ng/mL in data set [2] (setting [9]). In addition, the concentration at 16 h in data set [2] (setting [8]) came out at 1550 ng/mL; in [2] (setting [9]) it was 1830 ng/mL. The concentration at 60 min in data set [2] (minipig, plasma, subcutaneous, 114.2 mg/kg, minipigs, LDEE 114.2 mg/kg s.c. over 16 hours, read-out: circulating plasma LD concentration achieved within 60 minutes of initiation of infusion) was over 400 ng/mL. Further, the “circulating plasma LD concentration continuously maintained for at least 8 hours” value in data set [2] (minipigs, LDEE 114.2 mg/kg s.c. over 16 hours, lower bound) was “greater than 1,600 ng/mL”; in data set [2] (minipigs, LDEE 114.2 mg/kg s.c. over 16 hours, upper bound), “less than 5,000 ng/mL”. Further, in data set [2] (setting [10]), the “LD Concentration, Minipig #1” value is 9.0 ng/mL. Besides, the “LD Concentration, Minipig #2” value in data set [2] (setting [10]) turned out to be 31.0 ng/mL. For the same compound, the solubility of levodopa result in [3] (neutral pH) was “about 1.65 g per liter”; in data set [3] (pH 5) it was “about 2.8 g per liter”. The solubility is at least 5800 µg/mL in the data set “physchem”; about 34 mM (≈ 6.7 mg/mL) in data set [4] (pH 4.5, aqueous buffer, about pH 4.5, no LDEE.HCl); about 51 mM (≈ 10.1 mg/mL) in data set [4] (pH 4.5, aqueous with cosolvent or surfactant or cyclodextrin, about pH 4.5, 1.3 M LDEE.HCl); about 86 mM (≈ 17 mg/mL) in data set [4] (pH 4.5, aqueous with cosolvent or surfactant or cyclodextrin, about pH 4.5, about 2.6 M LDEE.HCl). For the same compound, the “solubility of LD in 2.7 M LDEE.HCl relative to absence of LDEE.HCl” value in data set [4] (near pH 4.5) is on record as “about three times more soluble”. In addition, the “solubility of LD” value in data set [4] (near pH 4.5, 2.7 M LDEE.HCl, about 25±1° C.) was “about 17 g per liter”.

`CC(=O)O.CCOC(=O)[C@@H](N)Cc1ccc(O)c(O)c1` [LDEE acetate]: the “initial rate of hydrolysis” value in data set [1] (about 2.4 M LDEE acetate, pH 4.7, about 23±2° C.) is “about 4.0±0.4 % per day”. Besides, the “% of the LDEE hydrolyzed” value in data set [1] (about 2.4 M LDEE acetate, pH 4.7, about 23±2° C., 24 h) amounted to 4.5%. In addition, the “% of the LDEE hydrolyzed to LD” value in [1] (about 2.4 M LDEE acetate, pH 4.7, about 23±2° C., 96 hours) was 14.5%. The “rate of hydrolysis relative to LDEE.HCl” value in [1] (about pH 4.5, about 23° C.) is given as “about 3 times”. Further, the “precipitation of LD” value was “no heavy precipitation” in [5] (about 1.2 M LDEE + LDEE acetate suspension, pH about 7.01, about 37° C., 3 hours) and “extensive precipitation of LD” in data set [5] (about 1.2 M LDEE + LDEE acetate, pH about 7.01, 37° C., 16 hours). The appearance of solution entry in data set [5] (about 2.4 M LDEE acetate, pH 4.7, about 23±2° C., after 96 hours) was “clear, i.e., precipitate free”. Besides, the “concentration of clear solution” value in [6] is “about 2.4 M”.

For `CCOC(=O)[C@@H](N)Cc1ccc(O)c(O)c1` [LDEE, levodopa ethyl ester], the “% of the LDEE hydrolyzed daily” value in [1] (about 2.65 M LDEE.HCl, pH 5.1, 23±2° C.) is “about 0.88%”. In addition, in [1] (about 2.65 M LDEE.HCl, pH 5.1 citrate, 7 days at 23±2° C., nitrogen flushed), the “% of the LDEE hydrolyzed to LD” value came to 6.2%. Besides, the “rate of hydrolysis relative to LDME” value in data set [1] (near pH 7, about 37° C.) was “about four times faster”. The “swelling at infusion sites at end of infusion” value in the data set with juvenile minipigs (resolved over 24 hours) is on record as “mild swelling in an area of about 1×2 cm”. Also, in the data set on juvenile minipigs (resolved over about one week), the subsequent subcutaneous nodules entry was “small subcutaneous nodules of about 1×1 cm”. Also, the concentration at 30 min in [2] (minipig, plasma, sc, 1142 mg, plasma, 30 minutes after start of 16 h s.c. infusion of 1,142 mg LDEE, read-out: LDEE Concentration, Minipig #1) was found to be 6.2 ng/mL. Further, the concentration at 30 min in data set [2] (minipig, plasma, sc, 1142 mg, plasma, 30 minutes after start of 16 h s.c. infusion of 1,142 mg LDEE, read-out: LDEE Concentration, Minipig #2) was found to be 6.2 ng/mL. Besides, in [2] (setting [11]), the concentration at 1 h stood at 6.4 ng/mL, the concentration at 2 h was 6.3 ng/mL, the concentration at 4 h amounted to 6.8 ng/mL and the concentration at 8 h is 10 ng/mL. In data set [2] (setting [11]), the concentration at 16 h came out at 10 ng/mL. Moreover, in [2] (setting [12]), the concentration at 1 h stood at 4.8 ng/mL, the concentration at 2 h is 6.3 ng/mL, the concentration at 4 h was determined as 7.9 ng/mL and the concentration at 8 h was 10.9 ng/mL. The concentration at 16 h in data set [2] (setting [12]) is 11.5 ng/mL. In addition, the “circulating plasma LDEE concentration during infusion” value in data set [2] (minipigs, LDEE formulation 114.2 mg/kg s.c. over 16 hours) is given as at most 15 ng/mL. In [2] (setting [10]), the “LDEE Concentration, Minipig #1” value is on record as 3.6 ng/mL and the “LDEE Concentration, Minipig #2” value came out at 3.3 ng/mL. In data set [5] (2.6 M LDEE.HCl, pH 5.5 (trisodium citrate), stirring at ambient temperature), the “time to LD precipitation” value was “about 30 hours”. Besides, the “precipitation of LD” value in [5] (about 0.25M LDEE in physiological saline, 16 hours at 37° C.) is listed as “extensive precipitation of LD”. The “expected time to LD precipitation (operational life)” value in data set [7] is on record as “about 4 days”.
